Among the data in ChEMBL document CHEMBL5728826, “Benzimidazole compounds and derivatives as EGFR inhibitors” (2021) are IC50 values, retold here.

The target in this assay is Epidermal growth factor receptor (Homo sapiens, UniProt P00533). As to the kind of experiment: Biochemical EGFR Inhibition Assays ([…]): 5 μL of EGFR enzyme form in assay buffer (50 mM HEPES pH 7.3, 10 mM MgCl2, 1 mM EGTA, 0.01% Tween 20, 2 mM DTT) are dispensed into columns 1-23, than 5 μL of ATP and ULight-poly-GT substrate (PerkinElmer; TRF0100-M) mix in assay buffer is added to all wells (final assay concentration of the ULight-poly-GT substrate 200 nM). Each of the different ….
Chain of Epidermal growth factor receptor (P00533 whole entry): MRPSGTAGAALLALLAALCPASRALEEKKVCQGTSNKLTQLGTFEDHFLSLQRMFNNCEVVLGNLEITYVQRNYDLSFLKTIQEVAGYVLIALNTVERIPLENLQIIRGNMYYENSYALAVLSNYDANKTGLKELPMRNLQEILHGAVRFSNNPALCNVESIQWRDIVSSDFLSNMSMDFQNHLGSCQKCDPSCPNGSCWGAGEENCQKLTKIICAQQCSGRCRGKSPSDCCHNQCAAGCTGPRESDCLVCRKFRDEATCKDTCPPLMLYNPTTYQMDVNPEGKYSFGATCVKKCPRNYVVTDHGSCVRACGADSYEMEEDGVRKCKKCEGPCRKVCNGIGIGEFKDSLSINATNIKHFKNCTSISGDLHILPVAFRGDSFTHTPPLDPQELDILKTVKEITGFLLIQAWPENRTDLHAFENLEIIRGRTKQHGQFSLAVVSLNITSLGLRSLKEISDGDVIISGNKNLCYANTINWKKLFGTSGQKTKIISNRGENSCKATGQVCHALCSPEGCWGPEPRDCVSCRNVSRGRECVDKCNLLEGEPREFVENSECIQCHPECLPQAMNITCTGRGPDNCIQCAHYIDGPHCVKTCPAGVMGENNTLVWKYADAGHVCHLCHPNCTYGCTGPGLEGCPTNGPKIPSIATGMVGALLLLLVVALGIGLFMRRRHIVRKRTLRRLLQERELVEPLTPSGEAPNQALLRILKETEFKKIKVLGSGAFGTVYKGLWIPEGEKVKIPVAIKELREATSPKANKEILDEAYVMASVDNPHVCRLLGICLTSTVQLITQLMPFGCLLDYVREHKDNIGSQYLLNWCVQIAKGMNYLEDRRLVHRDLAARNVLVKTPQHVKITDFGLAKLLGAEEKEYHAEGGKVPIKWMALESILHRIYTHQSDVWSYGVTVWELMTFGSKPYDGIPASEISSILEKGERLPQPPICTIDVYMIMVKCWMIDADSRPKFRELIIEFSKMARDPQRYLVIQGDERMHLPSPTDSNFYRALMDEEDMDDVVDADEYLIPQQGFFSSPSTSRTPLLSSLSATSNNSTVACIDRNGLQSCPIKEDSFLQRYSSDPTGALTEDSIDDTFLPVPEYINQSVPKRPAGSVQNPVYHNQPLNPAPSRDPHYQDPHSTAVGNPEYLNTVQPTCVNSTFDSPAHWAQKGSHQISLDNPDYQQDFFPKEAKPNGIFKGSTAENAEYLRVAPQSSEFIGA

The IC50 is the midpoint of a concentration-inhibition curve. Higher therefore signals weaker potency in that assay. In turn, `Cn1cc(-c2cc(C(=O)/N=c3\[nH]c4ccccc4n3CC(C)(C)O)ccn2)cn1` yielded an IC50 above 100 µM.
As for `COc1ccncc1-c1cc(C(=O)/N=c2\[nH]c3cc(C4CCN(C(C)=O)CC4)ccc3n2CC(C)(C)O)ccn1`, the figure is 0.217 µM.
